# Test results reported in PubChem BioAssay (NCI).
#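 Test compounds were applied to cells in 96-well plates for 48 hours at 5 doses. At the GI50, growth is halved. TGI denotes the concentration required for complete inhibition of growth.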
# Experiments:
# Assay in all cases: DTP human tumour cell line panel, 48 h
# [1] = test system: UACC-62 melanoma
# [2] = test system: BT-549 breast
# [3] = test system: A498 renal
# [4] = test system: M14 melanoma
# [5] = test system: SK-MEL-28 melanoma
# [6] = test system: MDA-MB-468 breast
# [7] = test system: PC-3 prostate
# [8] = test system: HOP-62 NSCLC
# [9] = test system: COLO 205 colon
# [10] = test system: HCC-2998 colon
# [11] = test system: SR leukemia
# [12] = test system: SK-OV-3 ovarian
# [13] = test system: UO-31 renal
# [14] = test system: SN12C renal
# [15] = test system: SK-MEL-2 melanoma
# [16] = test system: CCRF-CEM leukemia
# [17] = test system: RPMI-8226 leukemia
# [18] = test system: MDA-MB-435
# [19] = test system: OVCAR-5 ovarian
# [20] = test system: LOX IMVI melanoma
# [21] = test system: OVCAR-8 ovarian
# [22] = test system: OVCAR-3 ovarian
# [23] = test system: TK-10 renal
# [24] = test system: CAKI-1 renal
# [25] = test system: NCI-H226 lung
# [26] = test system: EKVX NSCLC
# [27] = test system: OVCAR-4 ovarian
# [28] = test system: SNB-19 CNS
# [29] = test system: KM12 colon
# [30] = test system: SW-620 colon
# [31] = test system: UACC-257 melanoma
# [32] = test system: SF-295 CNS
# [33] = test system: SF-539 CNS
# [34] = test system: HL-60(TB) leukemia
# [35] = test system: SK-MEL-5 melanoma
# [36] = test system: SF-268 CNS
# [37] = test system: A549 NSCLC
# [38] = test system: DU-145 prostate
# [39] = test system: T-47D breast
# [40] = test system: HS 578T breast
# [41] = test system: NCI-H23 lung
# [42] = test system: HT29 colon
# [43] = test system: RXF 393 renal
# [44] = test system: NCI-H460 lung
# [45] = test system: K-562 leukemia
# [46] = test system: HCT-15 colon
# [47] = test system: IGROV1 ovarian
# [48] = test system: MDA-MB-231 breast
# [49] = test system: U251 CNS
# [50] = test system: MCF7 breast
# [51] = test system: SNB-75 CNS
# [52] = test system: 786-0 renal
# [53] = test system: NCI-H522 lung
# [54] = test system: MOLT-4 leukemia
# [55] = test system: NCI/ADR-RES ovarian
# [56] = test system: ACHN renal
# [57] = test system: HCT-116 colon
# [58] = test system: MALME-3M melanoma
# [59] = test system: HOP-92 NSCLC
smiles,measurement,setting,value
COc1ccccc1/C=C/c1cccc(NC(=S)NCCCCN(C)C)c1,GI50,[1],15.5 µM
same,TGI,[1],29.3 µM
same,GI50,[2],17.6 µM
same,TGI,[2],33.3 µM
same,GI50,[3],16.5 µM
same,TGI,[3],30.3 µM
same,GI50,[4],12.1 µM
same,TGI,[4],26.5 µM
same,GI50,[5],15.9 µM
same,TGI,[5],29.5 µM
same,GI50,[6],10.1 µM
same,TGI,[6],22.6 µM
same,GI50,[7],14.2 µM
same,TGI,[7],30.5 µM
same,GI50,[8],16.2 µM
same,TGI,[8],32.3 µM
same,GI50,[9],13.6 µM
same,TGI,[9],29.9 µM
same,GI50,[10],13.2 µM
same,TGI,[10],27.2 µM
same,GI50,[11],11.7 µM
same,TGI,[11],35.4 µM
same,GI50,[12],17 µM
same,TGI,[12],35.1 µM
same,GI50,[13],13.7 µM
same,TGI,[13],27.7 µM
same,GI50,[14],15 µM
same,TGI,[14],29 µM
same,GI50,[15],16.1 µM
same,TGI,[15],31.3 µM
same,GI50,[16],12 µM
same,TGI,[16],29.5 µM
same,GI50,[17],17.2 µM
same,TGI,[17],51.8 µM
same,GI50,[18],3.82 µM
same,TGI,[18],15.7 µM
same,GI50,[19],15.3 µM
same,TGI,[19],29 µM
same,GI50,[20],11.7 µM
same,TGI,[20],25 µM
same,GI50,[21],17 µM
same,TGI,[21],34.5 µM
same,GI50,[22],10.7 µM
same,TGI,[22],26 µM
same,GI50,[23],17.3 µM
same,TGI,[23],32.3 µM
same,GI50,[24],14.5 µM
same,TGI,[24],27.8 µM
same,GI50,[25],10.2 µM
same,TGI,[25],27.4 µM
same,GI50,[26],14.9 µM
same,TGI,[26],31.3 µM
same,GI50,[27],14.9 µM
same,TGI,[27],29.6 µM
same,GI50,[28],17.5 µM
same,TGI,[28],34.7 µM
same,GI50,[29],16.1 µM
same,TGI,[29],32.1 µM
same,GI50,[30],14.5 µM
same,TGI,[30],31.7 µM
same,GI50,[31],16.3 µM
same,TGI,[31],31.7 µM
same,GI50,[32],12.5 µM
same,TGI,[32],26.1 µM
same,GI50,[33],13.4 µM
same,TGI,[33],26.2 µM
same,GI50,[34],12.4 µM
same,TGI,[34],29.7 µM
same,GI50,[35],14 µM
same,TGI,[35],26.9 µM
same,GI50,[36],15.3 µM
same,TGI,[36],34.5 µM
same,GI50,[37],16.3 µM
same,TGI,[37],34.4 µM
same,GI50,[38],15.9 µM
same,TGI,[38],32.5 µM
same,GI50,[39],11.6 µM
same,TGI,[39],27.3 µM
same,GI50,[40],18.3 µM
same,TGI,[40],45.2 µM
same,GI50,[41],15.2 µM
same,TGI,[41],30.4 µM
same,GI50,[42],5.8 µM
same,TGI,[42],20.6 µM
same,GI50,[43],11.8 µM
same,TGI,[43],26.2 µM
same,GI50,[44],12.5 µM
same,TGI,[44],27.8 µM
same,GI50,[45],3.07 µM
same,TGI,[45],13.3 µM
same,GI50,[46],8.09 µM
same,TGI,[46],21.6 µM
same,GI50,[47],17 µM
same,TGI,[47],32.3 µM
same,GI50,[48],14.1 µM
same,TGI,[48],27.8 µM
same,GI50,[49],17.6 µM
same,TGI,[49],33.3 µM
same,GI50,[50],10.4 µM
same,TGI,[50],24.2 µM
same,GI50,[51],12.1 µM
same,TGI,[51],27.2 µM
same,GI50,[52],15.8 µM
same,TGI,[52],33.4 µM
same,GI50,[53],15.2 µM
same,TGI,[53],31.3 µM
same,GI50,[54],13.3 µM
same,TGI,[54],32.2 µM
same,GI50,[55],14.9 µM
same,TGI,[55],37.9 µM
same,GI50,[56],15.7 µM
same,TGI,[56],29.1 µM
same,GI50,[57],11.8 µM
same,TGI,[57],28.6 µM
same,GI50,[58],15.8 µM
same,TGI,[58],29.8 µM
same,GI50,[59],10.1 µM
same,TGI,[59],25.9 µM
